Source: paper PMC9182141, “Assay Development and Identification of the First Plasmodium falciparum 7,8-dihydro-6-hydroxymethylpterin-pyrophosphokinase Inhibitors” (Molecules, 2022)
Where a name gives a salt, the structure may show the parent alone.

Legend:
[1] = biological target: T1, PfHPPK-GFP (Plasmodium falciparum, UniProt Q25704); test: DSF-GTP (GFP-tagged protein differential scanning fluorimetry) thermal shift; type: binding; details: read-out: ΔTm (°C)
Procedure: In a preliminary screening experiment, buffer conditions were investigated, searching for conditions that provide the largest thermal shift in the presence of 1 mM ATP. DSF curves were recorded under a total of 17 different conditions, with variations in buffer nature and pH, salts nature and concentration, effect of reducing agent, MgSO4 and glycerol.
From there, protein binding properties of the hit compounds were assessed experimentally using the developed DSF-GTP assay. A total of 54 compounds were tested, including virtual screening hits and closely related structures. According to our protocol, each compound was mixed with PfHPPK-GFP and submitted to a temperature gradient from 30 °C to 90 °C at 1 °C/min while GFP fluorescence was recorded. The first derivative of the resulting curve was used to determine the melting temperature (Tm). For each set of experiments, a negative control containing DMSO was added, and ΔTm values were calculated for each compound vs. the DMSO control. […] Two compound families were identified as the most promising by our DSF-GTP assay: 5-phenylazo-2,4-diaminopyrimidines (series 1) and phenyltriazolyl-2-amino-4-pyrimidinone (series 2). In series 2, linkers of different lengths that separate the phenyl triazolyl and the pyrimidine moieties were included.
In a typical DSF-GTP experiment, a master mix containing buffer and PfHPPK-GFP was prepared in a microcentrifuge tube, corresponding to a final protein concentration of 20 μg/mL. Ligands of interest were dispensed in low-profile 96-well plates (Bio-Rad) to 1 mM final concentration, and the master mix was dispensed to a final volume of 50 μL per well. In these conditions, DMSO content was maintained constant at 2%. The microplate was sealed with adhesive film and mixed by shaking for 2 min at 800 rpm at RT. The microplate was then submitted to a DSF run on a CFX96 RT-PCR (Bio-Rad, Hercules, CA, USA). DSF program was designed by starting with a 3 min equilibration phase at 30 °C, followed by a temperature gradient of 1 °C/min until 90 °C, recording fluorescence every 0.5 °C. Fluorescence was recorded using the FAM channel (λex = 450–490 nm, λem = 510–530 nm). Curves were fitted using the Precision Melt Analysis software (Bio-Rad).

[2] = biological target: T1, PfHPPK-GFP; test: KinaseGlo enzyme inhibition assay; type: biochemical; details: 1 mM compound, 10 μM HMDP and 10 μM ATP, 20 min at RT; read-out: Inhib. at 1 mM (%)
Procedure: For all the compounds displaying a measurable change of Tm, PfHPPK inhibition was recorded at 10 μM HMDP and ATP and 1 mM compound using the KinaseGlo assay. These conditions were chosen to be in the reported Km range for both HMDP and ATP substrates, enabling detection of both competitive and uncompetitive inhibitors. Compounds were incubated with HMDP, ATP and HPPK-GFP for 20 min at RT, followed by addition of the KinaseGlo reagent. After 10 min equilibration, luminescence was recorded, which directly reflects the quantity of ATP left in solution at the end of the reaction. Percentages of inhibition were calculated based on a DMSO positive control and a negative control lacking HPPK-GFP. Compounds structures, ΔTm and levels of inhibition appear in Table 1 and Table 2.
PfHPPK-GFP inhibition assay was carried using the KinaseGlo Plus kit (Promega, Madison, WI, USA). In a black 96-well plate were dispensed test compounds (1 μL of 50 mM DMSO stock), master mix (100 mM Tris pH 9, 10 mM β-mercapto ethanol, 10 mM MgSO4, 0.01% w/v BSA, 10 μM HMDP and 10 μM ATP). Reaction was initiated by addition of 2 μg of enzyme, reaching a total reaction volume of 50 μL, and reaction was allowed to proceed for 20 min at RT shaking at 300 rpm. Reaction was then quenched by addition of 50 μL KinaseGlo reagent and allowed to equilibrate for 10 min at RT shaking at 300 rpm. Luminescence was recorded on a Biotek Synergy H1 plate reader (Agilent, Santa Clara, CA, USA) using an integration time of 1 s per well. Percentage of inhibition was calculated related to a positive control experiment (no enzyme added) and a negative control experiment (no inhibitor added).

[3] = test system: KB cell line (human epithelial carcinoma cells); test: Cytotoxicity, sulforhodamine B assay, KB cells; type: cell-based; details: 72 h, when no IC50 could be determined, highest tested concentration noted
[4] = test system: Plasmodium falciparum V1/S (drug resistant); test: Antimalarial activity, [3H]-hypoxanthine incorporation assay, V1/S; type: cell-based; details: P. falciparum V1/S (drug resistant), when no IC50 could be determined, highest tested concentration noted
Procedure: (§1) Finally, the various hit compounds were tested for their antimalarial activity against P. falciparum TM4/8.2 [26] and V1/S [27] strains. Parasite cultures were treated with test compounds at different concentrations, and antimalarial activity was measured using [3H]-hypoxanthine incorporation assay, according to our previously reported protocol. […] IC50 values could not be measured for other compounds. At this stage, there is no explanation for the difference in antiparasitic activity observed between TM4/8.2 and V1/S strains, and more investigations would be needed to conclude on this effect.
(§2) Compounds were tested for their antimalarial activity against P. falciparum TM4/8.2 [26] and V1/S [27] strains according to our previously reported protocol. In brief, parasite strains were maintained continuously in human erythrocytes in RPMI1640 supplemented with 25 mM HEPES pH 7.4, 0.2% NaHCO3, 40 µg/mL gentamicin and 8% human serum at 37 °C under 3% CO2. For in vitro antimalarial assay, parasite was treated with serial dilutions of the inhibitors, and parasite survival was determined using a modified microdilution radioisotope technique.

[5] = test system: Vero cell line (African green monkey kidney cells); test: Cytotoxicity, sulforhodamine B assay, Vero cells; type: cell-based; details: Chlorocebus sabaeus, 72 h, when no IC50 could be determined, highest tested concentration noted
[6] = test system: Plasmodium falciparum TM4/8.2 (drug sensitive); test: Antimalarial activity, [3H]-hypoxanthine incorporation assay, TM4/8.2; type: cell-based; details: P. falciparum TM4/8.2 (drug sensitive), when no IC50 could be determined, highest tested concentration noted
Procedure: as §1, §2

[7] = Metabolic stability in rat liver microsomes; details: for microsomal CLint: rat, liver microsomes
Procedure: (§3) Intrinsic clearance was also measured in both human and rat liver microsomes in order to assess sensitivity to metabolic degradation.
(§4) Metabolic stability of test compounds was determined in human and rat liver microsomes. The assay was adapted from a previously published method. Briefly, the test compounds were mixed with liver microsomes, and the metabolic reactions were initiated by the addition of NADPH. Acetonitrile containing an internal standard (labetalol) was added at 0, 5, 10, 30, and 60 min to stop the reactions. Samples were processed, and the remaining compounds in the reactions were detected using a LC-MS/MS. Distribution coefficient, solubility and polar surface area were predicted using Marvin software. Partition coefficient was predicted using ACD/Labs software.

[8] = Metabolic stability in human liver microsomes; details: for microsomal CLint: human, liver microsomes
Procedure: as §3, §4

[9] = test system: PfHPPK; design: method as in PMID 19631695; details: substrate of monofunctional PfHPPK; cited from earlier work

T1 sequence (Q25704 entry or part of it): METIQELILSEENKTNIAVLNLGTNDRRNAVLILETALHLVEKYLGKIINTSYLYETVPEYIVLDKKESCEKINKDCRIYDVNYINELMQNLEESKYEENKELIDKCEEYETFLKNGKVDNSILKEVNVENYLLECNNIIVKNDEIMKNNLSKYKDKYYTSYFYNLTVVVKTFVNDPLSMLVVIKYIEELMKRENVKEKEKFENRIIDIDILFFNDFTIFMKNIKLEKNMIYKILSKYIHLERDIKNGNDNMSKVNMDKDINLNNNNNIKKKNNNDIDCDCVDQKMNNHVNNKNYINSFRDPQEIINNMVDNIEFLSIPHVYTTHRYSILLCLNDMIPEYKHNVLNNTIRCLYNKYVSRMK

Compound | ΔTm at 1000 µM [1] [°C] | inhibition at 1000 µM [2] [%] | IC50 [3] [µM] | IC50 [4] [µM] | IC50 ([4]; Plasmodium falciparum) [µM] | IC50 [5] [µM] | IC50 [6] [µM] | microsomal CLint [7] [µL/min/mg] | microsomal CLint [8] [µL/min/mg] | CLint (RLM) ([7]; rat liver microsomes, NADPH) [µL/min/mg] | CLint (HLM) ([8]; human liver microsomes, NADPH) [µL/min/mg] | Km [9] [µM]
COc1nc(N)nc(N)c1/N=N/c1cccc([N+](=O)[O-])c1 [Compound 1, (E)-6-Methoxy-5-((3-nitrophenyl)diazenyl)pyrimidine-2,4-diamine] | -1 | 2.5 ± 1.4 | > 100 | 21 | 21 | > 100 | > 100 | – | – | – | – | –
COC(=O)c1cccc(/N=N/c2c(N)nc(N)nc2Cl)c1 [Compound 2, Methyl (E)-3-((2,4-diamino-6-chloropyrimidin-5-yl)diazenyl) benzoate] | -1 | 11 ± 4.8 | > 100 | 89.2 | 89.2 | > 100 | > 100 | – | – | – | – | –
COc1nc(N)nc(N)c1/N=N/c1cccc(C(=O)O)c1 [Compound 3, (E)-3-((2,4-Diamino-6-methoxypyrimidin-5-yl)diazenyl) benzoic acid] | -1 | 23.3 ± 4.8 | > 100 | – | > 50 | > 100 | > 50 | < 3 | < 3 | – | – | –
Nc1nc(N)c(/N=N/c2ccccc2)c(N)n1 [Compound 4, (E)-5-(Phenyldiazenyl)pyrimidine-2,4,6-triamine] | -1 | 46 ± 7.5 | 62.4 | – | > 50 | 29.6 | 75.4 | 82.4 | 363 | – | – | –
Nc1nc(N)c(/N=N/c2cccc(C(=O)O)c2)c(N)n1 [Compound 5, (E)-3-((2,4,6-Triaminopyrimidin-5-yl)diazenyl)benzoic acid] | -1 | 14.6 ± 3.2 | – | – | > 10 | – | > 10 | – | – | – | – | –
Cc1nc(N)[nH]c(=O)c1Cc1cn(-c2ccc(C(=O)O)cc2)nn1 [Compound 6, 2-Amino-6-methyl-5-((1-(4-(carboxy)phenyl)-1H-1,2,3-triazol-4-yl)methyl)pyrimidin-4(3H)-one] | -1 | 1.8 ± 0.6 | > 25 | – | > 25 | > 25 | > 25 | – | – | – | – | –
Cc1nc(N)[nH]c(=O)c1Cc1cn(-c2cccc(C(=O)O)c2)nn1 [Compound 7, 2-Amino-6-methyl-5-((1-(3-(carboxy)phenyl)-1H-1,2,3-triazol-4-yl)methyl)pyrimidin-4(3H)-one] | -1 | 9.2 ± 1.5 | > 25 | – | > 25 | > 25 | > 25 | – | – | – | – | –
CCc1nc(N)[nH]c(=O)c1Cc1cn(-c2ccc(C(=O)O)cc2)nn1 [Compound 8, 2-Amino-6-ethyl-5-((1-(4-(carboxy)phenyl)-1H-1,2,3-triazol-4-yl)methyl)pyrimidin-4(3H)-one] | -1.2 ± 0.3 | 6.9 ± 2 | > 50 | – | > 50 | > 50 | > 50 | – | – | – | – | –
CCc1nc(N)[nH]c(=O)c1Cc1cn(-c2cccc(C(=O)O)c2)nn1 [Compound 9, 2-Amino-6-ethyl-5-((1-(3-(carboxy)phenyl)-1H-1,2,3-triazol-4-yl)methyl)pyrimidin-4(3H)-one] | -1 | 16.4 ± 2.9 | > 50 | – | > 50 | > 50 | > 50 | – | – | – | – | –
CCc1nc(N)[nH]c(=O)c1Cc1cn(-c2cccc([N+](=O)[O-])c2)nn1 [Compound 10, 2-Amino-6-ethyl-5-((1-(3-(nitro)phenyl)-1H-1,2,3-triazol-4-yl)methyl)pyrimidin-4(3H)-one hydrochloride] | -1.2 ± 0.3 | 12.1 ± 4 | > 50 | – | > 50 | > 50 | > 50 | – | – | – | – | –
CCc1nc(N)[nH]c(=O)c1CCc1cn(-c2ccc(C(=O)O)cc2)nn1 [Compound 11, 2-Amino-6-ethyl-5-(2-(1-(4-(carboxy)phenyl)-1H-1,2,3-triazol-4-yl)ethyl)pyrimidin-4(3H)-one hydrochloride] | -1.3 ± 0.3 | 34.9 ± 5.5 | > 50 | – | > 50 | > 50 | > 50 | 6.91 | < 3 | – | – | –
CCc1nc(N)[nH]c(=O)c1CCc1cn(-c2cccc(C(=O)O)c2)nn1 [Compound 12, 2-Amino-6-ethyl-5-(2-(1-(3-(carboxy)phenyl)-1H-1,2,3-triazol-4-yl)ethyl)pyrimidin-4(3H)-one hydrochloride] | -1.3 ± 0.3 | 24.5 ± 2.3 | > 50 | – | > 50 | > 50 | > 50 | – | – | – | – | –
CCc1nc(N)[nH]c(=O)c1CCCc1cn(-c2ccc(C(=O)O)cc2)nn1 [Compound 13, 2-Amino-6-ethyl-5-(3-(1-(4-(carboxy)phenyl)-1H-1,2,3-triazol-4-yl)propyl)pyrimidin-4(3H)-one hydrochloride] | -1.5 | 24.9 ± 3.1 | > 50 | – | > 50 | > 50 | > 50 | 7.38 | < 3 | – | – | –
CCc1nc(N)nc(N)c1OCCCOc1ccccc1CCC(=O)O [Compound P218, reference compound] | – | – | – | – | – | – | – | – | – | <3 | <3 | –
Nc1nc(O)c2c(n1)NCC(CO)=N2 [HMDP, 2-amino-4-hydroxy-6-hydroxymethyl-7,8-dihydropteridine] | – | – | – | – | – | – | – | – | – | – | – | 2.1
